Source: patent US12005126B2, “Compositions for oral administration of pentosan polysulfate in form of nanoparticles with improved intestinal absorption” (NEXTRARESEARCH S.R.L., priority 2018, dated 2024)

Assay: In-vivo pharmacokinetics study in rats after oral administration
Conditions: 1 mL, PPS conc. 4.64 mg/mL
Description: The bioavailability of PPS from the formulations of this invention can be evaluated in rats upon oral administration by gavage of the powder dispersion in comparison to the solution of non-formulated PPS
Plasma concentration versus time curve were evaluated in an in-vivo pharmacokinetics study carried out in rats after oral administration of 1 mL of a PPS aqueous solution having a concentration 4.64 mg/mL (Form I) or 1 mL of the PPS/chitosan nanosuspension (PPS conc. 4.64 mg/mL). In the nanosuspension the ratio between the volume of solution of PPS (6.5 mg/mL) and of solution of chitosan (6.5 mg/mL) used for the production of the nanoparticles was 5:2 (v/v).

Substance: Pentosan Polysulfate sodium [PPS solution]
- Area under the curve: 1306 µg·min/mL
- tmax: 1 h
